Measurements as given in patent US20220389007A1, “INHIBITORS OF HUMAN IMMUNODEFICIENCY VIRUS REPLICATION” (VIIV HEALTHCARE UK (No. 5) LIMITED, priority 2019, published 2022).

Tests used:
[1] = Compound cytotoxicity, XTT-based colorimetric assay; format: cell-based; conditions: human; uninfected MT2 cells, day 4, XTT assay
Experimental: Compound cytotoxicity and the corresponding CC50 values were determined using the same protocol as described in the antiviral assay except that uninfected cells were used. Cytotoxicity was assessed on day 4 in uninfected MT2 cells by using a XTT (2,3-bis[2-Methoxy-4-nitro-5-sulfophenyl]-2H-tetrazolium-5-carboxyanilide inner salt)-based colorimetric assay (Sigma-Aldrich, St Louis, Mo.).

[2] = system: recombinant NL4-3 virus; experiment: HIV cell culture assay (antiviral activity, luciferase readout); format: cell-based; conditions: Human immunodeficiency virus 1, NL43, MT2, MT-2 cells infected for 4-5 days with recombinant NL4-3 virus carrying Renilla luciferase
Experimental: HIV cell culture assay—MT-2 cells, 293T cells and the proviral DNA clone of NL4-3 virus were obtained from the NIH AIDS Research and Reference Reagent Program. MT-2 cells were propagated in RPMI 1640 media supplemented with 10% heat inactivated fetal bovine serum (FBS), […]. The 293T cells were propagated in DMEM media supplemented with 10% heat inactivated FBS, […]. A recombinant NL4-3 proviral clone, in which a section of the nef gene was replaced with the Renilla luciferase gene, was used to make the reference virus used in these studies. The recombinant virus was prepared through transfection of the recombinant NL4-3 proviral clone into 293T cells using Transit-293 Transfection Reagent from Mirus Bio LLC (Madison, WI). Supernatent was harvested after 2-3 days and the amount of virus present was titered in MT-2 cells using luciferase enzyme activity as a marker by measuring luciferase enzyme activity. Luciferase was quantitated using the EnduRen Live Cell Substrate from Promega (Madison, Wis.). Antiviral activities of compounds toward the recombinant virus were quantified by measuring luciferase activity in MT-2 cells infected for 4-5 days with the recombinant virus in the presence of serial dilutions of the compound.
The 50% effective concentration (EC50) was calculated by using the exponential form of the median effect equation where (Fa)=1/[1+(ED50/drug conc.)m] (Johnson VA, Byington RT. Infectivity Assay. In Techniques in HIV Research. ed. Aldovini A, Walker BD. 71-76. New York: Stockton Press. 1990). The 50% inhibitory concentration (EC50) was calculated by using the exponential form of the median effect equation where percent inhibition=1/[1+(EC50/drug concentration)m], where m is a parameter that reflects the slope of the concentration-response curve.

SMILES	CC50 at 4 day [1]	EC50 [2]
Cn1nc(NS(C)(=O)=O)c2c(Cl)ccc(-n3c([C@H](Cc4cc(F)cc(F)c4)NC(=O)Cn4nc(C(F)F)c5c4C(F)(F)[C@@H]4C[C@H]54)nc4nc(-c5ccccn5)ccc4c3=O)c21 (atropisomer, axis not shown; (P)) [Example 60, N-((S)-1-((3P)-3-(4-chloro-1-methyl-3-(methylsulfonamido)-1H-indazol-7-yl)-4-oxo-7-(pyridin-2-yl)-3,4-dihydropyrido[2,3-d]pyrimidin-2-yl)-2-(3,5-difluorophenyl)ethyl)-2-((3bS,4aR)-3-(difluoromethyl)-5,5-difluoro-3b,4,4a,5-tetrahydro-1H-cyclopropa[3,4]cyclopenta[1,2-c]pyrazol-1-yl)acetamide]	> 100 nM	0.032 nM
Cc1cc(-c2ccc3c(=O)n(-c4ccc(Cl)c5c(NS(C)(=O)=O)nn(C)c45)c([C@H](Cc4cc(F)cc(F)c4)NC(=O)Cn4nc(C(F)F)c5c4C(F)(F)[C@@H]4C[C@H]54)nc3n2)nn1CC(C)(F)F (single isomer, unassigned) [Example 96]	> 100 nM	0.044 nM
Cn1nc(NS(C)(=O)=O)c2c(Cl)ccc(-n3c([C@H](Cc4cc(F)cc(F)c4)NC(=O)Cn4nc(C(F)F)c5c4C(F)(F)[C@@H]4C[C@H]54)nc4nc(-c5cnc(C(C)(F)F)s5)ccc4c3=O)c21 (atropisomer, axis not shown; (P)) [Example 99, N-((S)-1-((3P)-3-(4-chloro-1-methyl-3-(methylsulfonamido)-1H-indazol-7-yl)-7-(2-(1,1-difluoroethyl)thiazol-5-yl)-4-oxo-3,4-dihydropyrido[2,3-d]pyrimidin-2-yl)-2-(3,5-difluorophenyl)ethyl)-2-((3bS,4aR)-3-(difluoromethyl)-5,5-difluoro-3b,4,4a,5-tetrahydro-1H-cyclopropa[3,4]cyclopenta[1,2-c]pyrazol-1-yl)acetamide]	> 100 nM	0.062 nM
Cn1nc(NS(C)(=O)=O)c2c(Cl)ccc(-n3c([C@H](Cc4cc(F)cc(F)c4)NC(=O)Cn4nc(C(F)F)c5c4C(F)(F)[C@@H]4C[C@H]54)nc4nc(-c5cccc(C(F)(F)F)n5)ccc4c3=O)c21 (atropisomer, axis not shown; (P)) [Example 9, N-((S)-1-((3P)-3-(4-chloro-1-methyl-3-(methylsulfonamido)-1H-indazol-7-yl)-4-oxo-7-(6-(trifluoromethyl)pyridin-2-yl)-3,4-dihydropyrido[2,3-d]pyrimidin-2-yl)-2-(3,5-difluorophenyl)ethyl)-2-((3bS,4aR)-3-(difluoromethyl)-5,5-difluoro-3b,4,4a,5-tetrahydro-1H-cyclopropa[3,4]cyclopenta[1,2-c]pyrazol-1-yl)acetamide]	> 100 nM	0.065 nM
Cc1cccc(-c2ccc3c(=O)n(-c4ccc(Cl)c5c(NS(C)(=O)=O)nn(C)c45)c([C@H](Cc4cc(F)cc(F)c4)NC(=O)Cn4nc(C(F)F)c5c4C(F)(F)[C@@H]4C[C@H]54)nc3n2)n1 (atropisomer, axis not shown; (P)) [Example 31, N-((S)-1-((3P)-3-(4-chloro-1-methyl-3-(methylsulfonamido)-1H-indazol-7-yl)-7-(6-methylpyridin-2-yl)-4-oxo-3,4-dihydropyrido[2,3-d]pyrimidin-2-yl)-2-(3,5-difluorophenyl)ethyl)-2-((3bS,4aR)-3-(difluoromethyl)-5,5-difluoro-3b,4,4a,5-tetrahydro-1H-cyclopropa[3,4]cyclopenta[1,2-c]pyrazol-1-yl)acetamide]	> 100 nM	0.031 nM
Cn1nc(NS(C)(=O)=O)c2c(Cl)ccc(-n3c([C@H](Cc4cc(F)cc(F)c4)NC(=O)Cn4nc(C(F)F)c5c4C(F)(F)[C@@H]4C[C@H]54)nc4nc(-c5ccn(CCC(F)(F)F)n5)ccc4c3=O)c21 (atropisomer, axis not shown; (P)) [Example 89, N-((S)-1-((3P)-3-(4-chloro-1-methyl-3-(methylsulfonamido)-1H-indazol-7-yl)-4-oxo-7-(1-(3,3,3-trifluoropropyl)-1H-pyrazol-3-yl)-3,4-dihydropyrido[2,3-d]pyrimidin-2-yl)-2-(3,5-difluorophenyl)ethyl)-2-((3bS,4aR)-3-(difluoromethyl)-5,5-difluoro-3b,4,4a,5-tetrahydro-1H-cyclopropa[3,4]cyclopenta[1,2-c]pyrazol-1-yl)acetamide]	> 100 nM	0.056 nM
Cn1nc(NS(C)(=O)=O)c2c(Cl)ccc(-n3c([C@H](Cc4cc(F)cc(F)c4)NC(=O)Cn4nc(C(F)F)c5c4C(F)(F)[C@@H]4C[C@H]54)nc4nc(-c5ccc(F)c(C(F)(F)F)c5)ccc4c3=O)c21 (atropisomer, axis not shown; (P)) [Example 19, N-((S)-1-((3P)-3-(4-chloro-1-methyl-3-(methylsulfonamido)-1H-indazol-7-yl)-7-(4-fluoro-3-(trifluoromethyl)phenyl)-4-oxo-3,4-dihydropyrido[2,3-d]pyrimidin-2-yl)-2-(3,5-difluorophenyl)ethyl)-2-((3bS,4aR)-3-(difluoromethyl)-5,5-difluoro-3b,4,4a,5-tetrahydro-1H-cyclopropa[3,4]cyclopenta[1,2-c]pyrazol-1-yl)acetamide]	> 100 nM	0.23 nM
Cn1nc(NS(C)(=O)=O)c2c(Cl)ccc(-n3c([C@H](Cc4cc(F)cc(F)c4)NC(=O)Cn4nc(C(F)F)c5c4C(F)(F)[C@@H]4C[C@H]54)nc4nc(-c5ccn(CC(F)(F)C(F)F)n5)ccc4c3=O)c21 (atropisomer, axis not shown; (P)) [Example 84, N-((S)-1-((3P)-3-(4-chloro-1-methyl-3-(methylsulfonamido)-1H-indazol-7-yl)-4-oxo-7-(1-(2,2,3,3-tetrafluoropropyl)-1H-pyrazol-3-yl)-3,4-dihydropyrido[2,3-d]pyrimidin-2-yl)-2-(3,5-difluorophenyl)ethyl)-2-((3bS,4aR)-3-(difluoromethyl)-5,5-difluoro-3b,4,4a,5-tetrahydro-1H-cyclopropa[3,4]cyclopenta[1,2-c]pyrazol-1-yl)acetamide]	> 100 nM	0.041 nM
Cn1nc(NS(C)(=O)=O)c2c(Cl)ccc(-n3c([C@H](Cc4cc(F)cc(F)c4)NC(=O)Cn4nc(C(F)F)c5c4C(F)(F)[C@@H]4C[C@H]54)nc4nc(-c5ccn(CCCF)n5)ccc4c3=O)c21 (atropisomer, axis not shown; (P)) [Example 87, N-((S)-1-((3P)-3-(4-chloro-1-methyl-3-(methylsulfonamido)-1H-indazol-7-yl)-7-(1-(3-fluoropropyl)-1H-pyrazol-3-yl)-4-oxo-3,4-dihydropyrido[2,3-d]pyrimidin-2-yl)-2-(3,5-difluorophenyl)ethyl)-2-((3bS,4aR)-3-(difluoromethyl)-5,5-difluoro-3b,4,4a,5-tetrahydro-1H-cyclopropa[3,4]cyclopenta[1,2-c]pyrazol-1-yl)acetamide]	> 100 nM	0.036 nM
Cn1nc(NS(C)(=O)=O)c2c(Cl)ccc(-n3c([C@H](Cc4cc(F)cc(F)c4)NC(=O)Cn4nc(C(F)F)c5c4C(F)(F)[C@@H]4C[C@H]54)nc4nc(-c5cnn(C6CC6)c5)ccc4c3=O)c21 (atropisomer, axis not shown; (P)) [Example 74, N-((S)-1-((3P)-3-(4-chloro-1-methyl-3-(methylsulfonamido)-1H-indazol-7-yl)-7-(1-cyclopropyl-1H-pyrazol-4-yl)-4-oxo-3,4-dihydropyrido[2,3-d]pyrimidin-2-yl)-2-(3,5-difluorophenyl)ethyl)-2-((3bS,4aR)-3-(difluoromethyl)-5,5-difluoro-3b,4,4a,5-tetrahydro-1H-cyclopropa[3,4]cyclopenta[1,2-c]pyrazol-1-yl)acetamide]	> 100 nM	0.054 nM
Cn1nc(NS(C)(=O)=O)c2c(Cl)ccc(-n3c([C@H](Cc4cc(F)cc(F)c4)NC(=O)Cn4nc(C(F)F)c5c4C(F)(F)[C@@H]4C[C@H]54)nc4nc(-c5nc(C(F)(F)F)ccc5F)ccc4c3=O)c21 (atropisomer, axis not shown; (P)) [Example 36, N-((S)-1-((3P)-3-(4-chloro-1-methyl-3-(methylsulfonamido)-1H-indazol-7-yl)-7-(3-fluoro-6-(trifluoromethyl)pyridin-2-yl)-4-oxo-3,4-dihydropyrido[2,3-d]pyrimidin-2-yl)-2-(3,5-difluorophenyl)ethyl)-2-((3bS,4aR)-3-(difluoromethyl)-5,5-difluoro-3b,4,4a,5-tetrahydro-1H-cyclopropa[3,4]cyclopenta[1,2-c]pyrazol-1-yl)acetamide]	> 100 nM	0.045 nM
